Results published in PubChem BioAssay (NCI).
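Values below derive from 48-hour exposures of cells grown in 96-well plates, with endpoints linearly interpolated between the two concentrations bracketing the appropriate inhibition level. Abbreviation: GI50, concentration required for 50% inhibition of growth. TGI marks complete inhibition of growth.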

How the values were obtained:
Test in all cases: NCI tumour cell line growth inhibition, 48 h
RXF 393 renal = tested on: RXF 393 renal
SW-620 colon = tested on: SW-620 colon
A498 renal = tested on: A498 renal
MALME-3M melanoma = tested on: MALME-3M melanoma
HOP-62 NSCLC = tested on: HOP-62 NSCLC
KM12 colon = tested on: KM12 colon
SNB-75 CNS = tested on: SNB-75 CNS
SK-MEL-28 melanoma = tested on: SK-MEL-28 melanoma
SN12K1 renal = tested on: SN12K1 renal
HCT-116 colon = tested on: HCT-116 colon
SNB-19 CNS = tested on: SNB-19 CNS
SF-268 CNS = tested on: SF-268 CNS
A549 NSCLC = tested on: A549 NSCLC
IGROV1 ovarian = tested on: IGROV1 ovarian
RPMI-8226 leukemia = tested on: RPMI-8226 leukemia
NCI-H522 lung = tested on: NCI-H522 lung
OVCAR-3 ovarian = tested on: OVCAR-3 ovarian
LOX IMVI melanoma = tested on: LOX IMVI melanoma
K-562 leukemia = tested on: K-562 leukemia
DMS 273 small cell lung = tested on: DMS 273 small cell lung
SN12C renal = tested on: SN12C renal
HOP-92 NSCLC = tested on: HOP-92 NSCLC
HT29 colon = tested on: HT29 colon
OVCAR-5 ovarian = tested on: OVCAR-5 ovarian
HOP-18 NSCLC = tested on: HOP-18 NSCLC
OVCAR-8 ovarian = tested on: OVCAR-8 ovarian
UO-31 renal = tested on: UO-31 renal
NCI-H23 lung = tested on: NCI-H23 lung
SNB-78 CNS = tested on: SNB-78 CNS
P388/ADR leukemia = tested on: P388/ADR leukemia
DLD-1 colon = tested on: DLD-1 colon
OVCAR-4 ovarian = tested on: OVCAR-4 ovarian
HL-60(TB) leukemia = tested on: HL-60(TB) leukemia
HCC-2998 colon = tested on: HCC-2998 colon
COLO 205 colon = tested on: COLO 205 colon
EKVX NSCLC = tested on: EKVX NSCLC
CAKI-1 renal = tested on: CAKI-1 renal
NCI/ADR-RES ovarian = tested on: NCI/ADR-RES ovarian
SK-MEL-2 melanoma = tested on: SK-MEL-2 melanoma
MCF7 breast = tested on: MCF7 breast
DMS 114 small cell lung = tested on: DMS 114 small cell lung
SF-539 CNS = tested on: SF-539 CNS
UACC-62 melanoma = tested on: UACC-62 melanoma
P388 leukemia = tested on: P388 leukemia
SK-OV-3 ovarian = tested on: SK-OV-3 ovarian
SK-MEL-5 melanoma = tested on: SK-MEL-5 melanoma
U251 CNS = tested on: U251 CNS
M19-MEL melanoma = tested on: M19-MEL melanoma
NCI-H226 lung = tested on: NCI-H226 lung
MOLT-4 leukemia = tested on: MOLT-4 leukemia
SF-295 CNS = tested on: SF-295 CNS
KM20L2 colon = tested on: KM20L2 colon
HCT-15 colon = tested on: HCT-15 colon
CCRF-CEM leukemia = tested on: CCRF-CEM leukemia
UACC-257 melanoma = tested on: UACC-257 melanoma
NCI-H460 lung = tested on: NCI-H460 lung
XF 498 CNS = tested on: XF 498 CNS

Question: Which results are given for `COC(=O)C1C(O)C(C)C(O)C(C)(O)/C=C/C=C(C)C(=O)Nc2c(C)c(OC(C)=O)c3c(c2O)C(=O)C(C)=C2OCOC(=C23)C(C)=CC(C)(O)C(O)C(C)C1OC(C)=O` (stereo not given)?
Answer: TGI (RXF 393 renal): 33.4 µM; GI50 (SW-620 colon): 31.6 µM; TGI (SW-620 colon): 63.3 µM; TGI (A498 renal): > 56.2 µM; GI50 (MALME-3M melanoma): 22.6 µM; TGI (MALME-3M melanoma): 43.8 µM; TGI (HOP-62 NSCLC): > 100 µM; GI50 (KM12 colon): 19.2 µM; TGI (KM12 colon): 35.2 µM; TGI (SNB-75 CNS): > 63.1 µM; GI50 (SK-MEL-28 melanoma): 33.4 µM; TGI (SK-MEL-28 melanoma): 59.7 µM; TGI (SN12K1 renal): 60.8 µM; GI50 (HCT-116 colon): 18.1 µM; TGI (HCT-116 colon): 34.5 µM; TGI (SNB-19 CNS): > 100 µM; GI50 (SF-268 CNS): 39.9 µM; TGI (SF-268 CNS): 75.8 µM; TGI (A549 NSCLC): > 100 µM; TGI (IGROV1 ovarian): 80.5 µM; GI50 (RPMI-8226 leukemia): 27.1 µM; TGI (RPMI-8226 leukemia): 54.9 µM; TGI (NCI-H522 lung): 56 µM; GI50 (OVCAR-3 ovarian): 22.4 µM; TGI (OVCAR-3 ovarian): 63.1 µM; TGI (LOX IMVI melanoma): 41.2 µM; GI50 (K-562 leukemia): 30.7 µM; TGI (K-562 leukemia): 60.5 µM; TGI (DMS 273 small cell lung): > 100 µM; TGI (SN12C renal): 47.9 µM; GI50 (HOP-92 NSCLC): 15.9 µM; TGI (HOP-92 NSCLC): 35.1 µM; TGI (HT29 colon): > 92.7 µM; TGI (OVCAR-5 ovarian): > 100 µM; TGI (HOP-18 NSCLC): > 100 µM; GI50 (OVCAR-8 ovarian): 42.9 µM; TGI (OVCAR-8 ovarian): 92.1 µM; TGI (UO-31 renal): > 100 µM; TGI (NCI-H23 lung): 52.7 µM; GI50 (SNB-78 CNS): 37.9 µM; TGI (SNB-78 CNS): 91.2 µM; TGI (P388/ADR leukemia): > 83.1 µM; TGI (DLD-1 colon): 43.3 µM; TGI (OVCAR-4 ovarian): > 100 µM; TGI (HL-60(TB) leukemia): 49.8 µM; TGI (HCC-2998 colon): 85.5 µM; TGI (COLO 205 colon): 39.3 µM; TGI (EKVX NSCLC): 67.8 µM; GI50 (CAKI-1 renal): 37.1 µM; TGI (CAKI-1 renal): 86.9 µM; TGI (NCI/ADR-RES ovarian): > 100 µM; TGI (SK-MEL-2 melanoma): 39.7 µM; TGI (MCF7 breast): 34.5 µM; TGI (DMS 114 small cell lung): 25.4 µM; TGI (SF-539 CNS): 76.4 µM; TGI (UACC-62 melanoma): 47.7 µM; TGI (P388 leukemia): 52.2 µM; TGI (SK-OV-3 ovarian): > 100 µM; TGI (SK-MEL-5 melanoma): > 78.5 µM; TGI (U251 CNS): > 100 µM; TGI (M19-MEL melanoma): 31.8 µM; GI50 (NCI-H226 lung): 50.7 µM; TGI (NCI-H226 lung): > 100 µM; TGI (MOLT-4 leukemia): 54.8 µM; TGI (SF-295 CNS): > 100 µM; TGI (KM20L2 colon): > 88.6 µM; TGI (HCT-15 colon): 69.6 µM; GI50 (CCRF-CEM leukemia): 28.1 µM; TGI (CCRF-CEM leukemia): 55.8 µM; GI50 (UACC-257 melanoma): 20.1 µM; TGI (UACC-257 melanoma): 44.8 µM; GI50 (NCI-H460 lung): 19.9 µM; TGI (NCI-H460 lung): 38.6 µM

Question: What does the source list for `CCN(CC)c1c(C)c(C(=O)OC)nn1-c1ccccc1`?
Answer: TGI (RXF 393 renal): > 100 µM; TGI (SW-620 colon): > 100 µM; TGI (A498 renal): > 100 µM; TGI (MALME-3M melanoma): > 100 µM; TGI (HOP-62 NSCLC): > 100 µM; TGI (KM12 colon): > 100 µM; TGI (SNB-75 CNS): > 100 µM; TGI (SK-MEL-28 melanoma): > 100 µM; TGI (SN12K1 renal): > 100 µM; TGI (HCT-116 colon): > 100 µM; TGI (SNB-19 CNS): > 100 µM; TGI (XF 498 CNS): > 100 µM; TGI (SF-268 CNS): > 100 µM; TGI (A549 NSCLC): > 100 µM; TGI (IGROV1 ovarian): > 100 µM; TGI (RPMI-8226 leukemia): > 100 µM; TGI (NCI-H522 lung): > 100 µM; TGI (OVCAR-3 ovarian): > 100 µM; TGI (LOX IMVI melanoma): > 100 µM; TGI (K-562 leukemia): > 100 µM; TGI (DMS 273 small cell lung): > 100 µM; TGI (SN12C renal): > 100 µM; TGI (HOP-92 NSCLC): > 100 µM; TGI (HT29 colon): > 100 µM; TGI (OVCAR-5 ovarian): > 100 µM; TGI (HOP-18 NSCLC): > 100 µM; TGI (OVCAR-8 ovarian): > 100 µM; TGI (UO-31 renal): > 100 µM; TGI (NCI-H23 lung): > 100 µM; TGI (SNB-78 CNS): > 100 µM; TGI (P388/ADR leukemia): > 100 µM; TGI (DLD-1 colon): > 100 µM; TGI (OVCAR-4 ovarian): > 100 µM; TGI (HL-60(TB) leukemia): > 100 µM; TGI (HCC-2998 colon): > 100 µM; TGI (COLO 205 colon): > 100 µM; TGI (EKVX NSCLC): > 100 µM; TGI (CAKI-1 renal): > 86.3 µM; TGI (NCI/ADR-RES ovarian): > 100 µM; TGI (SK-MEL-2 melanoma): > 100 µM; TGI (MCF7 breast): > 100 µM; TGI (DMS 114 small cell lung): > 100 µM; TGI (SF-539 CNS): > 100 µM; TGI (UACC-62 melanoma): > 100 µM; TGI (P388 leukemia): > 100 µM; TGI (SK-OV-3 ovarian): > 100 µM; TGI (SK-MEL-5 melanoma): > 100 µM; TGI (U251 CNS): > 100 µM; TGI (M19-MEL melanoma): > 100 µM; TGI (NCI-H226 lung): > 100 µM; TGI (MOLT-4 leukemia): > 100 µM; TGI (SF-295 CNS): > 100 µM; TGI (KM20L2 colon): > 100 µM; TGI (HCT-15 colon): > 100 µM; TGI (CCRF-CEM leukemia): > 100 µM; TGI (UACC-257 melanoma): > 100 µM; TGI (NCI-H460 lung): > 100 µM
